Measured values as given in patent publication US6790839B2, “Pharmaceutical administration of adenosine agonists” (Can-Fite Biopharma Ltd., priority 1999, dated 2004).
Entries after “also recorded” stand apart in the source; their conditions may differ.

Legend:
[1] = tested on: bone marrow cells; conditions: adenosine 10-50 μM, concentration dependent; cited from earlier work
[2] = tested on: bone marrow cells; test: Bone marrow cell proliferation in vitro ([3H]-thymidine incorporation assay); format: cell-based, C57BL/6J mice
Method: All drugs were purchased from Sigma Chemical Co. St. Louis, Mo. Adenosine was dissolved in water and kept as a stock solution in a concentration of 1 mM. For in vitro studies, dilutions in RPMI medium were carried out and final concentrations of 100, 50, 25, 10 and 5 μM were used. For in vivo studies, the stock solution was diluted with PBS to a concentration of […] and 0.5 ml was injected intraperitoneally to mice. 1,3-dipropyl-8-cyclopentylxanthine (DPCPX), an adenosine A1 receptor antagonist, 3,7-dimethyl-1-propargyl-xanthine (DMPX) an A2 receptor antagonist and N-cyclopentyladenosine (CPA), a selective A1 receptor agonist were added to a culture of proliferating bone marrow cells.
Bone marrow cells were obtained from the femur of C57BL/6J mice. Cells were disaggregated by passing through a 25G needle. [^3H]-Thymidine incorporation assay was used to evaluate the proliferative capability of the bone marrow cells.
Cells (3×10^4/well were incubated with RPMI medium, containing 10% fetal calf serum (FCS) (Biological Industries, Beit Haemek, Israel) and adenosine, adenosine antagonists or the agonist in 96 microtiter plates for 48 h. Cultures containing cells were suspended in RPMI medium and 10% FCS served as controls. In the last 6 hours of incubation, each well was pulsed with 1 μCi [^3H]-thymidine. Cells were harvested and the ^3[H]-thymidine uptake was determined in an LKB liquid scintillation counter (LKB, Piscataway, N.J., USA).

[3] = tested on: white blood cells (WBC) and neutrophils; test: In vivo protection against myelotoxic effects of chemotherapy: blood cell count (Coulter counter, differential counts); parameters: species or system ICR mice; conditions: for Neutrophils (no.) / WBC (no.): blood, CPA 6 μg/kg per os 48 h and 72 h where given; for Neutrophils (no.): control level 1200; for WBC (no.): control level 6100
Method: Male ICR mice of the age of two months and weighing an average of 25 gr were employed. The mice were purchased from Harlan Laboratories, Jerusalem, […]. Protection of CPA-treated mice against myelotoxic effects of chemotherapy was evaluated. To this end, mice were provided with a chemotherapeutic drug, a combination of the drug with CPA or with a vehicle only. […] In particular, three test groups of mice were treated daily according to the following regimen: 1. Control group-vehicle only. 2. Chemotherapy-CYP (50 mg/kg body weight). 3. Chemotherapy+chemoprotection-CYP (50 mg/kg body weight)+CPA (6 μg/kg body weight, given through per os administration, 48 h and 72 h following chemotherapy treatment). To test the myeloprotective effect of CPA, blood samples were withdrawn from the above-mentioned groups 96 h, 120 h and 144 h following treatment with CYP, the following measurements were taken. Blood cell count-Blood cell count was carried out in a Coulter counter and differential cell counts were performed on smear preparations stained with May-Grunvald-Giemsa solution. Serum was separated from the whole blood and was kept at -70° C.

[4] = tested on: G-CSF; test: In vivo serum G-CSF level by ELISA after chemotherapy; parameters: species or system ICR mice; conditions: for G-CSF (pgr/ml): serum, CPA 6 μg/kg per os 48 h and 72 h after chemotherapy where given, male ICR mice
Method: Male ICR mice of the age of two months and weighing an average of 25 gr were employed. The mice were purchased from Harlan Laboratories, Jerusalem, […]. Protection of CPA-treated mice against myelotoxic effects of chemotherapy was evaluated. To this end, mice were provided with a chemotherapeutic drug, a combination of the drug with CPA or with a vehicle only. […] In particular, three test groups of mice were treated daily according to the following regimen: 1. Control group-vehicle only. 2. Chemotherapy-CYP (50 mg/kg body weight). 3. Chemotherapy+chemoprotection-CYP (50 mg/kg body weight)+CPA (6 μg/kg body weight, given through per os administration, 48 h and 72 h following chemotherapy treatment). To test the myeloprotective effect of CPA, blood samples were withdrawn from the above-mentioned groups 96 h, 120 h and 144 h following treatment with CYP, the following measurements were taken. G-CSF level-granulocyte colony stimulating factor (G-CSF) level in the serum was determined by the use of a commercial ELISA kit (R&D Systems). G-CSF activity was expressed in pgr/ml according to a standard curve of recombinant G-CSF supplied by R&D Systems.

Nc1ncnc2c1ncn2[C@@H]1O[C@H](CO)[C@@H](O)[C@H]1O [adenosine]
3[H]-thymidine incorporation of bone marrow cells [1]: stimulated

OC[C@H]1O[C@@H](n2cnc3c(NC4CCCC4)ncnc32)[C@H](O)[C@@H]1O [CPA, N-cyclopentyladenosine]
stimulation of bone marrow cell proliferation ([2]; concentrations of 0.1 and 0.01 μM, FIG 2): statistically significant stimulation
in vivo protection against myelotoxicity of chemotherapeutic drugs ([3]; mice given CYP 50 mg/kg, CPA 6 μg/kg per os): provides in vivo protection against myelotoxicity; also recorded: acts as a chemoprotective agent
level of G-CSF (summary in words) ([4]; combined treatment versus CYP only, CPA given orally to mice): induces in vivo G-CSF production

CCCn1c(=O)c2[nH]c(C3CCCC3)nc2n(CCC)c1=O [DPCPX, 1,3-dipropyl-8-cyclopentylxanthine]
effect on adenosine-stimulated bone marrow cell proliferation ([2]; 0.1 μM, with adenosine, FIG 1): significantly reversed the stimulatory effect of adenosine

C#CCn1c(=O)c2c(ncn2C)n(C)c1=O [DMPX, 3,7-dimethyl-1-propargyl-xanthine]
effect on bone marrow cell proliferation ([2]; 0.1 μM, given without or with adenosine, FIG 1): induced a stimulatory effect

O=P1(N(CCCl)CCCl)NCCCO1 (stereo not shown) [CYP, cyclophosphamide]
number of leukocytes and neutrophils (summary in words) ([3]; CYP only versus control, combined treatment versus CYP only): reduce significantly
Neutrophils (no.) ([3]; 96 hrs after CYP 50 mg/kg): 377 no.
WBC (no.) ([3]; 96 hrs after CYP 50 mg/kg): 2620 no.
Neutrophils (no.) ([3]; 120 hrs after CYP 50 mg/kg): 490 no.
WBC (no.) ([3]; 120 hrs after CYP 50 mg/kg): 2800 no.
Neutrophils (no.) ([3]; 144 hrs after CYP 50 mg/kg): 1326 no.
WBC (no.) ([3]; 144 hrs after CYP 50 mg/kg): 3900 no.
G-CSF (pgr/ml) ([4]; 96 hrs after CYP 50 mg/kg): 511.30 pgr/ml
G-CSF (pgr/ml) ([4]; 120 hrs after CYP 50 mg/kg): 333.03 pgr/ml
G-CSF (pgr/ml) ([4]; 144 hrs after CYP 50 mg/kg): 871.14 pgr/ml
